{"source": "patent US11845919B2", "about": "“Blood culture system with low media volume” (BECTON, DICKINSON AND COMPANY, priority 2015, dated 2023)", "tested_on": "antibiotic/microorganism combinations", "test": "TTD tests per antibiotic, Low Volume/Low Ratio vs PlusAer control", "assay_type": "cell-based", "settings": "drug amount at peak serum level in 7 ml of blood", "description": "The performance of 1:1 blood-to-broth ratio in the presence of an inhibitory antibiotic was tested in comparison to a standard diluted blood-to-broth ratio at least 1:3. Two different sample preparations for the 1:1 blood-to-broth ratio are described below.\nFIG. 3A illustrates a low volume/low ratio preparation that is prepared in a 30 ml vial with the resin and lytic media disposed in separate chambers. The preparation contained resin and 8 ml total lytic media. The sensor in the container was a solid-state fluorescent 02 sensor. The fluorescent signal changes were used to determine microorganism growth. […] The low volume/low ratio preparation provided a 1:1 blood-to-broth ratio. The total 8 ml lytic media were separated into two parts. One part of the lytic media was in the 30 ml bottle with resin and the other part of the lytic media was in a separate device and the media therein was added under sterile conditions into the 30 ml bottle at the time the bottle was inoculated with both the blood sample and the microorganisms.\nFIG. 3B illustrates the second sample preparation identified as “PlusLytic”. The PlusLytic preparation uses the BACTEC Plus Aerobic product that is commercially available, which is 30 ml of media in the 80 ml bottle. At the time of testing, 8 ml of blood, a predetermined amount of antibiotic, 10-100 CFU's of microorganisms, and an additional 20 mg of saponin were combined with the 30 ml of media in the bottle. […] The control test sample preparation is depicted in FIG. 3C and identified as “PlusAer”. The PlusAer preparation uses the commercially available BACTEC Plus Aerobic product without any additional media components. At the time of testing, 8 ml of blood, a predetermined amount of antibiotic and 10-100 CFU's of microorganisms are combined with the contents of the BACTEC Plus Aerobic product.\nEach sample preparation was tested with 64 antibiotic/microorganism combinations. The antibiotics tested were Gentamicin, Amoxicillin-Clavulanate, Aztreonam, Ceftriaxone, Cefepime, Imipenem, Meropenem, Piperacillin-Tazobactam, Vancomycin, Tigecycline, Ciprofloxacin, Tetracycline, Fluconazole. The drug quantity inoculated into each test bottle was equivalent to the drug amount at its peak serum level in 7 ml of blood. These antibiotics were combined with certain microorganisms that they generally treat. For example, Amoxicillin-Clavulanate was combined with S. aureus, E. coli, and E. faecalis. Each sample was tested for both TTD and recovery of the microorganism in the presence of drugs.\nThe media was inoculated with blood sample, antibiotics and saponin a few minutes apart from each other.", "data": [{"compound": "C[C@@H](O)[C@H]1C(=O)N2C(C(=O)O)=C(S[C@@H]3CN[C@H](C(=O)N(C)C)C3)[C@H](C)[C@H]12", "note": "[Meropenem]", "values": [{"measurement": "TTD of the Low Volume/Low Ratio preparation as compared to the PlusAer preparation", "result": "faster TTD"}]}, {"compound": "Amoxicillin-Clavulanate [Amoxicillin/clavulanic acid]", "values": [{"measurement": "TTD of the Low Volume/Low Ratio preparation as compared to the PlusAer preparation", "result": "faster TTD"}]}, {"compound": "Gentamicin", "values": [{"measurement": "TTD of the Low Volume/Low Ratio preparation as compared to the PlusAer preparation", "result": "slower TTD"}]}, {"compound": "CN[C@H](CC(C)C)C(=O)N[C@H]1C(=O)N[C@@H](CC(N)=O)C(=O)N[C@H]2C(=O)N[C@H]3C(=O)N[C@H](C(=O)N[C@H](C(=O)O)c4cc(O)cc(O)c4-c4cc3ccc4O)[C@H](O)c3ccc(c(Cl)c3)Oc3cc2cc(c3O[C@@H]2O[C@H](CO)[C@@H](O)[C@H](O)[C@H]2O[C@H]2C[C@](C)(N)[C@H](O)[C@H](C)O2)Oc2ccc(cc2Cl)[C@H]1O", "note": "[Vancomycin]", "values": [{"measurement": "TTD of the Low Volume/Low Ratio preparation as compared to the PlusAer preparation", "result": "faster TTD"}]}, {"compound": "CO/N=C(\\C(=O)N[C@@H]1C(=O)N2C(C(=O)O)=C(CSc3nc(=O)c(=O)[nH]n3C)CS[C@H]12)c1csc(N)n1", "note": "[Ceftriaxone]", "values": [{"measurement": "TTD of the Low Volume/Low Ratio preparation as compared to the PlusAer preparation", "result": "faster TTD"}]}]}
